Data taken from patent US20250177370A1, “METHOD FOR ALLEVIATING UTERINE LEIOMYOMA USING NICOTINAMIDE” (TAIPEI MEDICAL UNIVERSITY, priority 2023, published 2025).

Legend:
[1] = system: Eker rat uterine leiomyoma cell line ELT-3; assay: Crystal violet staining assay (area density, viable cells); assay type: cell-based; conditions: ELT-3 cells, 48 hours, vs control group, p<0.001
Protocol: (§1) Eker rat uterine leiomyoma cell line ELT-3 was purchased from the American Type Culture Collection (ATCC, Manassas, Va., USA). The ELT-3 cells were grown in a 6 cm Petri dish containing Dulbecco's Modified Eagle's Medium (DMEM)/F12 [1:1 (v/v)] (Cassion, Cat. no. DFP29) supplemented with 10% fetal bovine serum (FBS, Corning Inc., Cat. no. 35-010-CV) and 1% antibiotic-antimycotic (Corning Inc., Cat. no. 30-004-CI). The ELT-3 cells were cultivated in an incubator at 37° C. with 5% CO2. Medium change was performed every two to three days. Cell passage was performed when the cultured cells reached 80% to 90% of confluence.
First, the ELT-3 cells prepared in section 1 of “General Experimental Materials” were divided into 3 groups, including a control group, and two experimental groups (i.e., experimental groups 1 and 2). Each group of the ELT-3 cells was seeded at a concentration of 1×10^5 cells/well into a respective well of 6-well culture plates containing 2 mL of DMEM/F12 supplemented with 10% FBS and 1% penicillin-streptomycin, followed by cultivation in an incubator (37° C., 5% CO2) for 24 hours.
(§2) Next, medium change was performed by adding a fresh culture medium supplemented with 1% FBS into the 6-well culture plate. […]
(§3) The data thus obtained were analyzed according to the procedures as described in section 1 of “General Procedures”.

[2] = system: Eker rat uterine leiomyoma cell line ELT-3; assay: Colony formation assay; assay type: cell-based; conditions: ELT-3 cells, 3 days treatment then 7 to 10 days, vs control group, p<0.05
Protocol: as §1
First, the ELT-3 cells prepared in section 1 of “General Experimental Materials” were divided into 3 groups, including a control group, and two experimental groups (i.e., experimental groups 1 and 2). Each group of the ELT-3 cells was seeded at a concentration of 5×10^2 cells/well into a respective well of 6-well culture plates containing 2 mL of DMEM/F12 supplemented with 10% FBS and 1% penicillin-streptomycin, followed by cultivation in an incubator (37° C., 5% CO2) for 24 hours.
as §2, §3

[3] = system: fibronectin; assay: Western blotting of ECM protein fibronectin in ELT-3 cells; assay type: cell-based, rat; conditions: 72 hours, normalized to GAPDH, vs control group
Protocol: (§4) First, the ELT-3 cells prepared in section 1 of “General Experimental Materials” were divided into 3 groups, including a control group, and two experimental groups (i.e., experimental groups 1 and 2). Each group of the ELT-3 cells was seeded at a concentration of 2×10^5 cells/well into a 10-cm Petri dish containing 2 mL of DMEM/F12 supplemented with 10% FBS and 1% penicillin-streptomycin, followed by cultivation in an incubator (37° C., 5% CO2) overnight.
(§5) Next, medium change was performed by adding a fresh culture medium supplemented with 1% FBS into the 10-cm Petri dish, followed by cultivation in an incubator (37° C., 5% CO2) for 24 hours. […]
(§6) After cultivation in an incubator (37° C., 5% CO2) for 72 hours, each of the cell cultures was mixed with 100 μL of a RIPA lysis buffer (BIOMAN, Cat. no. 20121701) containing protease inhibitor cocktail (Roche, Cat. no. 4693159001). […] The protein concentration in the total protein sample was determined using bicinchoninic acid (BCA) assay kit (T-Pro Biotechnology, Cat. no. JB04-D001) in accordance with the manufacturer's instructions. […]
(§7) Subsequently, ImageJ software was used for semi-quantitatively calculating the corresponding protein expression level. […]
(§8) The relative expression level was calculated using the following Equation (1): […]
as §3

[4] = system: alpha-smooth muscle actin (α-SMA); assay: Western blotting of α-SMA in ELT-3 cells; assay type: cell-based, rat; conditions: 72 hours, normalized to GAPDH, vs control group
Protocol: as §4, §5, §6, §7, §8, §3

[5] = system: collagen type I alpha 1 chain (COL1A1); assay: Western blotting of COL1A1 in ELT-3 cells; assay type: cell-based, rat; conditions: 72 hours, normalized to GAPDH, vs control group
Protocol: as §4, §5, §6, §7, §8, §3

[6] = system: primary melanocytes; conditions: primary melanocytes with ultraviolet (UV) radiation-induced DNA damage; Thompson B. C. et al. (2014); cited from earlier work
[7] = 20 mM nicotinamide (experimental group 1)
[8] = 50 mM nicotinamide (experimental group 2)

What does the source list for `NC(=O)c1cccnc1` [nicotinamide]?
area density [1, 7]: significant decrease; area density [1, 8]: significant decrease; colony density [2, 7]: significant decrease; colony density [2, 8]: significant decrease; relative expression level of fibronectin ([3]; 20 mM nicotinamide): significantly decreased; relative expression level of fibronectin ([3]; 50 mM nicotinamide): significantly decreased; relative expression level of α-SMA ([4]; 20 mM nicotinamide): significantly decreased; relative expression level of α-SMA ([4]; 50 mM nicotinamide): significantly decreased; relative expression level of COL1A1 ([5]; 20 mM nicotinamide): significantly decreased; relative expression level of COL1A1 ([5]; 50 mM nicotinamide): significantly decreased; DNA repair [6]: enhances DNA repair
